Test results as given in US7049331B2, “1,2,4-thiadiazole derivatives as melanocortin receptor modulators” (Ortho-McNeil Pharmaceutical, Inc., priority 2001, dated 2006).
Where two headings read alike, the source gives them in different places.

Key:
[1] = test system: Hippocampal Cells; assay: Neurite Cell Outgrowth Assay, hippocampal cells; assay type: cell-based; details: Rattus norvegicus; 50 nM; percent change over the vehicle response; NA = no change/not active
From the text: (§1) Dissociated hippocampal and cortical cell cultures were established from embryonic day 18 rat fetuses as described by Mattson, M. P., Barger, S. W., Begley, J, and Mark, R. J., Methods Cell Biol., 1994, 46:[…]. Briefly, fetuses were removed via cesarean section from pregnant moms (Sprague-Dawley) and anesthetized with halothane according to the AVMA Panel on Euthanasia. Pups were decapitated and the brains were removed and placed in HEPES-buffered Hank's Balanced Salt solution (HBSS; Gibco). The hippocampi and cortices were dissected out and pooled according to tissue-type. Tissue was trypsinized for 15 min (1 mg/ml trypsin-HBSS; Worthington), rinsed with fresh HBSS, incubated in trypsin inhibitor (1 mg/ml; Sigma) for 5 min, rinsed again with fresh HBSS and then triturated in 1 ml fresh HBSS with a fire-polished glass pipette. Dissociated cells were seeded at 30,000 cells/well onto poly-D-lysine coated 96-well plates (Collaborative BioScience). Each well contained 100 μl of Eagle's Minimal Essential Media (MEM; Gibco) supplemented with 26 mM NaHCO3 (Sigma), 56 mM glucose (Sigma), 15 mM KCl (Sigma), 1 mM sodium pyruvate (Sigma), 1.1 mM L-glutamine (Sigma), 10% (v/v) heat-inactivated fetal bovine serum (Hyclone), and 0.001% gentamicin sulfate (Sigma) (pH 7.4). Cells were allowed to attach for 24 h in a humidified 37° C. 5% CO2 incubator before experimental treatment. The culture media was aspirated and exchanged with fresh media every 3 days.
(§2) Twenty-four hours after plating, cultures were treated with vehicle (PBS+0.1% BSA), alpha-melanocyte stimulating hormone (α-MSH) or test compound (diluted in DPBS). Each treatment condition was run in quadruplicate. On the third day in culture, the media was aspirated off and replaced with fresh media and test compound. At one week in culture, the cells were fixed with 10% phosphate-buffered formalin for 15 min, then rinsed with DPBS (Sigma) and placed in blocking serum for 30 min (horse serum; 1:50 dilution in DPBS; Vector Labs). The cultures were rinsed again with DPBS and then incubated in primary antibody for 2 hr (microtubule-associated protein-2 (MAP-2) is a selective marker for dendritic processes; anti-mouse monoclonal (Chemicon); 1:1000 dilution of MAP-2 in antibody diluent (Zymed)). Negative control wells were incubated in antibody diluent alone. Background signal was determined by blank wells (cell-free) incubated with or without antibody. Cultures were rinsed again with DPBS and then placed in fluorescein for 1 hr (FITC; anti-mouse IgG; rat adsorbed; 1:50 dilution in DPBS; Vector Labs). Cultures were rinsed a final time with DPBS and the plates were then read on a Cytofluor 4000 fluorescence plate reader. Neurite outgrowth was expressed as percent change from control (vehicle).
(§3) The data are expressed as percent change over the vehicle response. All compounds were screened at 50 nM. The abbreviation NA indicates no change/not active; the abbreviation ND indicates a compound not tested/response not determined.

[2] = test system: Cortical Cells; assay: Neurite Cell Outgrowth Assay, cortical cells; assay type: cell-based; details: Rattus norvegicus; 50 nM; percent change over the vehicle response; NA = no change/not active
From the text: as §1, §2, §3

[3] = target: T1, melanocortin MC-4 receptor (Homo sapiens, UniProt P32245); assay: MC-4 receptor binding (Filtration); details: Filtration; for IC50: read-out: IC50 MC-4 (μM) (Filtration)
T1 construct: purchased Receptor Biology Inc
T1 sequence (P32245 whole entry): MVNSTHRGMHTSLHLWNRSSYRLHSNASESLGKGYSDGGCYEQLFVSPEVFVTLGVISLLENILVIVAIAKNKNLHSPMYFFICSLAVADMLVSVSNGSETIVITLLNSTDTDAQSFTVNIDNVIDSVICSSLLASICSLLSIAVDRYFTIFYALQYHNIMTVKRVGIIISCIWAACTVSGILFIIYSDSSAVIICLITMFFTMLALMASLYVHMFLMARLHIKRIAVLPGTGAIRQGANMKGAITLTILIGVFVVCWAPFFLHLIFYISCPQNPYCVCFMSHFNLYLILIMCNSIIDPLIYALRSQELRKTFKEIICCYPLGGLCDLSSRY
Procedure: The procedures described above for the melanocortin MC-4 receptor were repeated for the melanocortin MC-3 receptor. Following the procedures described, representative compounds of the present invention were tested for binding in the MC-4 and/or MC-3 assay, as listed in Table 4.

[4] = target: T1, melanocortin MC-4 receptor; assay: Melanocortin MC-4 Receptor Binding Assay (SPA)
Procedure: Melanocortin MC-4 Receptor Binding Assay Melanocortin [MC-4]-membrane [purchased from Receptor Biology Inc] was coupled to wheat germ agglutinin coated polyvinyl toluene-Scintillation Proximity Assay beads [purchased from Amersham Pharmacia Inc.] for 30 min at 25° C. Into each well of a 96-well Opti plate [purchased from Packard, Calif.], 2.5 μg of membrane and 0.25 mg of beads were mixed in a volume of 100 μL media. […] Test compounds (1.5 μL) at 1 mM in 30% DMSO-50 mM HEPES, pH 7.4 buffer was added to separate wells on the plate. Radioactive ligand ^125I-NDP-melanocyte stimulating hormone [NEN, 2000Ci/mmol] was added to each well (48.5 μL per well, 40 pM final concentration). The plate was then sealed and let stand for 16 hr at 25° C. NDP-Melanocyte stimulating hormone peptide and α-melanocyte stimulating hormone peptide [purchased from Palomar Research Inc, 1 μM] were used as reference inhibitor compounds to define non-specific binding (N). Total binding (T) was defined using 30% DMSO-50 mM HEPES, pH 7.4 buffer. Bound radioactivity for each well (Y), measured at counts per minute (cpm) was measured in a TopCount [Packard, Calif.]. Percent inhibition was calculated as: […] The procedures described above for the melanocortin MC-4 receptor were repeated for the melanocortin MC-3 receptor. Following the procedures described, representative compounds of the present invention were tested for binding in the MC-4 and/or MC-3 assay, as listed in Table 4.

[5] = test system: Food-Deprived Rats; assay: Rodent Feeding: Food Intake in Food-Deprived Rats (MC-4); assay type: in vivo, rat; details: Rattus norvegicus
From the text: Rodent Feeding: Food Intake in Food-Deprived Rats (MC-4)
Male Long-Evans rats (180–200 grams) were housed individually and maintained on a once-a-day feeding schedule (i.e.10 a.m. until 4 p.m.) for five days following quarantine to allow the animals to acclimate to feeding on powdered chow (#5002 PMI Certified Rodent Meal) during the allotted time. The chow was made available in an open jar, anchored in the cage by a wire, with a metal follower covering the food to minimize spillage. Water was available ad-libitum.
Animals were fasted for 18 hours prior to testing. At the end of the fasting period, animals were administered either a test compound or vehicle. Vehicle and test compound were administered either orally (5 mL/kg) 60 minutes prior to the experiment, subcutaneously (1 mL/kg) 30 minutes prior to the experiment, or intraperitoneally (1 mL/kg) 30 minutes prior to the experiment. Test compounds were administered orally as a suspension in aqueous 0.5% methylcellulose-0.4% Tween 80, or intraperitoneally as a solution or suspension in PEG 200; compound concentrations typically ranged from 1 mg/kg to 100 mg/kg, preferably from 10–30 mg/kg. Food intake was measured at 2, 4, and 6 hours after administration by weighing the special jar containing the food before the experiment and at the specified times. Upon completion of the experiment, all animals were given a one-week washout period before re-testing.
Following the procedure described above, select compounds of the present invention were tested to measure the effect on food intake in fasted rats, as listed in Table 5 and 6.

[6] = ip, 2 h, ip, read-out: Change in Food Intake 0–2 hrs (%)
[7] = ip, 6 h, ip, read-out: Change in Food Intake 2–6 hrs (%)
[8] = po, 2 h, po, read-out: Change in Food Intake 0–2 hrs (%)
[9] = po, 6 h, po, read-out: Change in Food Intake 2–6 hrs (%)

## COc1ccc(Nc2nc(-c3ccccc3)[n+](-c3ccc(Cl)cc3)s2)cc1 [Compound 16]
[1]
  activation at 0.05 µM: 8%
[2]
  activation at 0.05 µM: 18%
[3]
  IC50: 4.3 µM
[4]
  IC50: 424 nM

## Cc1ccccc1-[n+]1sc(Nc2ccc(Cl)cc2)nc1-c1ccccc1 [Compound 13]
[1]
  activation at 0.05 µM: 29%
[2]
  activation at 0.05 µM: 32%
[3]
  IC50: 3.4 µM
[4]
  IC50: 347 nM

## Clc1ccc(Nc2nc(-c3ccccc3)[n+](-c3ccccc3)s2)cc1 [Compound 27]
[1]
  activation at 0.05 µM: 17%
[2]
  activation at 0.05 µM: 52%
[4]
  IC50: 89 nM
[5]; [6]
  change in vivo at 30 mg/kg: -27.4%
[5]; [7]
  change in vivo at 30 mg/kg: -29.1%

## Clc1ccc(-[n+]2sc(Nc3ccccc3)nc2-c2ccccc2)cc1 [Compound 15]
[1]
  activation at 0.05 µM: 18%
[2]
  activation at 0.05 µM: 31%
[3]
  IC50: 4.5 µM
[4]
  IC50: 482 nM

## Cc1ccc(-[n+]2sc(Nc3ccc(Cl)cc3)nc2-c2ccccc2)cc1 [Compound 6]
[1]
  activation at 0.05 µM: 23%
[2]
  activation at 0.05 µM: 24%
[3]
  IC50: 2.5 µM
[4]
  IC50: 293 nM

## COc1ccccc1-[n+]1sc(Nc2ccccc2C)nc1-c1ccccc1 [Compound 32]
[2]
  activation at 0.05 µM: 6%
[4]
  IC50: 48 nM
[5]; [6]
  change in vivo at 10 mg/kg: -29.6%
[5]; [7]
  change in vivo at 10 mg/kg: -60.2%
[5]; [8]
  change in vivo at 1 mg/kg: -13.8%
  change in vivo at 3 mg/kg: -11.5%
  change in vivo at 10 mg/kg: -20%
  change in vivo at 30 mg/kg: -12.5%
[5]; [9]
  change in vivo at 1 mg/kg: 26%
  change in vivo at 3 mg/kg: 31.2%
  change in vivo at 10 mg/kg: -1%
  change in vivo at 30 mg/kg: -15%

## Cc1ccc(Nc2nc(-c3ccccc3)[n+](-c3ccccc3C)s2)cc1 [Compound 11]
[1]
  activation at 0.05 µM: 9%
[2]
  activation at 0.05 µM: 10%
[3]
  IC50: 2.4 µM
[4]
  IC50: 243 nM

## Cc1ccc(Nc2nc(-c3ccccc3)[n+](-c3ccc(C)cc3)s2)cc1 [Compound 4]
[1]
  activation at 0.05 µM: 20%
[2]
  activation at 0.05 µM: 21%
[3]
  IC50 MC-4 (μM) (Filtration): inactive
[4]
  IC50: 297 nM

## COc1ccccc1Nc1nc(-c2ccccc2)[n+](-c2ccc(C)cc2)s1 [Compound 3]
[1]
  activation at 0.05 µM: 17%
[2]
  activation at 0.05 µM: 23%
[3]
  IC50: 0.7 µM
[4]
  IC50: 159 nM

## Cc1ccc(-[n+]2sc(Nc3ccccc3Cl)nc2-c2ccccc2)cc1 [Compound 7]
[2]
  activation at 0.05 µM: 11%
[3]
  IC50: 2.2 µM
[4]
  IC50: 218 nM

## Clc1ccc(-[n+]2sc(Nc3ccccc3Cl)nc2-c2ccccc2)cc1 [Compound 21]
[1]
  activation at 0.05 µM: 27%
[2]
  activation at 0.05 µM: 2%
[3]
  IC50: 7.8 µM
[4]
  IC50: 392 nM

## Cc1ccc(-[n+]2sc(Nc3ccccc3)nc2-c2ccccc2)cc1 [Compound 2]
[1]
  activation at 0.05 µM: 18%
[2]
  activation at 0.05 µM: 18%
[3]
  IC50: 1.5 µM
[4]
  IC50: 234 nM

## COc1ccc(Nc2nc(-c3ccccc3)[n+](-c3ccccc3OC)s2)cc1 [Compound 29]
[2]
  activation at 0.05 µM: 8%
[4]
  IC50: 48 nM
[5]; [6]
  change in vivo at 10 mg/kg: -62.3%
[5]; [7]
  change in vivo at 10 mg/kg: -70.7%
[5]; [8]
  change in vivo at 30 mg/kg: -26.3%
[5]; [9]
  change in vivo at 30 mg/kg: -3.7%

## Cc1ccc(-n2s/c(=N/c3ccccc3)nc2-c2ccccc2)cc1 [Compound 82]
[1]
  activation at 0.05 µM: 14%
[2]
  activation at 0.05 µM: 15%
[3]
  IC50: 1.5 µM
[4]
  IC50: 826 nM

## COc1ccccc1-[n+]1sc(Nc2ccccc2Cl)nc1-c1ccccc1 [Compound 34]
[2]
  activation at 0.05 µM: 22%
[4]
  IC50: 46 nM
[5]; [6]
  change in vivo at 10 mg/kg: -38%
[5]; [7]
  change in vivo at 10 mg/kg: -72%
[5]; [8]
  change in vivo at 10 mg/kg: -1.3%
  change in vivo at 30 mg/kg: -7.5%
[5]; [9]
  change in vivo at 10 mg/kg: -6%
  change in vivo at 30 mg/kg: 2%

## Cc1ccccc1Nc1nc(-c2ccccc2)[n+](-c2ccc(Cl)cc2)s1 [Compound 19]
[1]
  activation at 0.05 µM: 22%
[3]
  IC50: 3.9 µM
[4]
  IC50: 460 nM

## COc1ccc(Nc2nc(-c3ccccc3)[n+](-c3ccccc3C)s2)cc1 [Compound 9]
[3]
  IC50: 1.1 µM
[4]
  IC50: 217 nM

## Cc1ccc(-[n+]2sc(Nc3ccccc3C)nc2-c2ccccc2)cc1 [Compound 5]
[1]
  activation at 0.05 µM: 28%
[2]
  activation at 0.05 µM: 9%
[3]
  IC50: 1.3 µM
[4]
  IC50: 207 nM

## Clc1ccccc1Nc1nc(-c2ccccc2)[n+](-c2ccccc2)s1 [Compound 49]
[1]
  activation at 0.05 µM: 16%
[2]
  activation at 0.05 µM: 51%
[4]
  IC50: 96 nM
[5]; [6]
  change in vivo at 30 mg/kg: -20.6%
[5]; [7]
  change in vivo at 30 mg/kg: -21.2%

## Cc1ccccc1Nc1nc(-c2ccccc2)[n+](-c2ccccc2)s1 [Compound 26]
[1]
  activation at 0.05 µM: 16%
[2]
  activation at 0.05 µM: 47%
[4]
  IC50: 63 nM
[5]; [6]
  change in vivo at 10 mg/kg: -12.7%
[5]; [7]
  change in vivo at 10 mg/kg: -32.3%

## Cc1ccccc1-[n+]1sc(Nc2ccccc2)nc1-c1ccccc1 [Compound 8]
[2]
  activation at 0.05 µM: 12%
[3]
  IC50: 1.4 µM
[4]
  IC50: 201 nM

## Clc1ccc(Nc2nc(-c3ccccc3)[n+](-c3ccc(Cl)cc3)s2)cc1 [Compound 20]
[1]
  activation at 0.05 µM: 17%
[3]
  IC50: 3.5 µM
[4]
  IC50: 636 nM
